Reference: paper PMC7719179, “Small molecule inhibition of Dynamin-dependent endocytosis targets multiple niche signals and impairs leukemia stem cells” (Nature Communications, 2020)
Values joined by “and” are separate entries in the source; they are usually repeats but may differ in a detail not shown here. Equal entries are not always repeated.

Key:
Ba/F3-IL7R cells = experiment: Survival of IL-7-dependent Ba/F3-IL7R cells; format: cell-based, murine; details: for Survival (%) over DMSO control, reported as 100%: Ba/F3-IL7R cells, replicates
Method: Ba/F3 cells (kindly provided by a person from The Walter and Eliza Hall Institute of Medical Research) were infected with pMIG-R1/Il7r retroviral supernatants produced in 293T cells, and transduced cells were sorted with a BD Influx (BD Australia) and selected by culture in medium supplemented with 5 ng/mL rmIL-7 (#217-17, Pepro Tech, Rocky Hill NJ, USA) for 7 days. Ba/F3 cells stably expressing Il7r (Ba/F3-IL7R) were infected with TxTCPVIR-Stat5-CA retroviral supernatants produced in 293T. Cell sorting was performed with a BD Influx and transduced cells were treated with doxycycline for 48 h to induce the expression of the Stat5-CA-T2A-mCherry fusion protein.
Flow cytometry analyses were performed as previously described[10],[86] on single-cell suspensions stained using BD Pharmingen antibodies (BD Australia, North Ryde NSW, Australia) against mouse CD4 (RM4-5), CD8 (53-6.7), CD25 (PC61.5), CD44 (IM7), CD45.1 (A20), CD45.2 (104), Thy1.2 (53-2.1; #561616), TCRβ (H57-597), CD117 (ACK45), CD135 (A2F10.1), CD150 (TC15-12F12.2; #562373), B220 (RA3-6B2; #563708), CD3 (145-2C11; #563004), CD19 (ID3; #557655), Gr-1 (RB6-8C5; #563299 and #565033), CD11b (M1/70; #563015 and #560455), Ter119 (Ter119; #565523 and #557909), Sca-1 (D7; #558160) and an eBioscience antibody (eBioscience, Invitrogen) against mouse NOTCH1 (22E5). DN3 populations and IL-7R were stained using BioLegend antibodies (Australian Biosearch, Balcatta WA, Australia) against mouse CD28 (E18) and CD127 (A7R34), respectively. Apoptosis was measured using an antibody against AnnexinV (#556420, BD Australia) and the […] Sytox Blue (BD Australia) following the manufacturer’s protocol.

[1] = test system: pre-LSCs within the DN3a thymocyte population of Lmo2^Tg mice; experiment: Limiting dilution transplantation assay, pre-LSC frequency; format: in vivo, mouse
Method: (§1) Single-cell suspension of murine thymus cells were intravenously injected into sublethally irradiated (650 Rads) isogenic Ly5.1 (Cd45.1) mice. Fold expansion was calculated by dividing the absolute output number of donor-derived DN3a cells harvested at the experimental endpoint by the respective number of DN3a thymocytes injected in each recipient. Limiting dilution transplantations were performed as described, by injecting various doses (10^1 to 10^6) of thymocytes per recipient, and mice were scored positive when T-cell lineage reconstitution assessed 6 weeks after transplantation was >1%. Leukemia-propagating cell frequency was calculated by applying Poisson statistics using the ELDA: Extreme Limiting Dilution Analysis software (Walter and Eliza Hall Institute Bioinformatics, Parkville VIC, Australia)[96]. Limiting dilution transplantations were performed independently from any other transplantation assays, using thymocytes from three different Lmo2^Tg mice for each cohort. Kaplan–Meier survival and statistical analysis were performed using GraphPad Prism. 6.0 software (GraphPad Software Inc, San Diego CA, USA).

[2] = test system: pre-LSC self-renewal activity; experiment: Fold expansion after transplantation of DN3a thymocytes from treated Lmo2^Tg mice; format: in vivo, mouse; details: recipients of DN3a thymocytes from treated Lmo2^Tg mice; individual animals
Method: as §1

in vitro = details: mouse, Relative % viable cells

| SMILES | Survival (%) over DMSO control, reported as 100% (Ba/F3-IL7R cells; +IL-7, Dynole 34-2 0.2 (head prints mM)) | Survival (%) over DMSO control, reported as 100% (Ba/F3-IL7R cells; +IL-7, Dynole 34-2 1.0 (head prints mM)) | Survival (%) over DMSO control, reported as 100% (Ba/F3-IL7R cells; +IL-7, Dynole 34-2 5.0 (head prints mM)) | Survival (%) over DMSO control, reported as 100% (Ba/F3-IL7R cells; +IL-7, Dynole 34-2 10.0 (head prints mM)) | Survival (%) over DMSO control, reported as 100% (Ba/F3-IL7R cells; +IL-7, Dynole 34-2 25.0 (head prints mM)) | cell death of Ba/F3-IL7R cells (Ba/F3-IL7R cells; result in words) | Limiting dilution assay, Response (positive recipients) ([1]; cell dose 106, 9 recipients tested) | Limiting dilution assay, Response (positive recipients) ([1]; cell dose 1060, 9 recipients tested) | Limiting dilution assay, Response (positive recipients) ([1]; cell dose 10602, 6 recipients tested) | Limiting dilution assay, Response (positive recipients) ([1]; cell dose 106020, 6 recipients tested) | fold decrease in pre-LSC frequency ([1]; treated Lmo2^Tg mice vs vehicle) | Fold expansion DN3a cells [2] | viability at 48 h, 0.04 mM (in vitro) | viability at 48 h, 0.2 mM (in vitro) |
| --- | --- | --- | --- | --- | --- | --- | --- | --- | --- | --- | --- | --- | --- | --- |
| CCCCCCCCNC(=O)C(C#N)=Cc1cn(CCCN(C)C)c2ccccc12 [Dynole 34-2, 2-Cyano-N-octyl-3-(1-(3-dimethylaminopropyl)-1H-indol-3-yl)-acrylamide] | 98.98% and 96.19% and 98.31% and 99.95% and 64.95% and 22.36% and 89.89% and 75.78% and 97.73% and 100.16% | 96.00% and 88.79% and 100.24% and 102.05% and 16.85% and 13.04% and 78.86% and 82.29% and 101.66% and 91.15% | 81.60% and 25.70% and 92.65% and 90.92% and 25.47% and 16.90% and 48.81% and 60.17% and 57.90% and 33.60% | 1.62% and 1.82% and 0.05% and 0.27% and 26.62% and 22.03% and 44.15% and 40.27% and 4.53% and 9.16% | 1.30% and 1.60% and 0.00% (2×) and 24.81% and 18.62% and 3.40% and 4.14% and 4.55% and 3.04% | induced cell death in a dose-dependent manner | 0 | 0 | 3 | 5 | 100 fold | 3.5 fold and 2.36 fold and 9.11 fold and 4.77 fold and 13.12 fold and 6.34 fold and 25.03 fold and 63.73 fold and 32.46 fold |  |  |
| N#CC[C@H](C1CCCC1)n1cc(-c2ncnc3[nH]ccc23)cn1 [Ruxolitinib] |  |  |  |  |  |  |  |  |  |  |  |  | 83.2% | 39.6% |
